Where two headings read alike, the source gives them in different places. Where a SMILES comes first, the peptide text is derived from it. The star is where a group is joined. Cbz = O=C(OCc1ccccc1)*
What was measured:
[1] = Stability of Compound 3 in solution at pH 7; type: physicochemical
From the text: Oxidative cleavage of the (S)(−)-(4-methoxyphenyl)-ethylamide protecting group in Compound 14 cleanly afforded the β-lactam, Compound 3, in 89% yield.

20S proteasome = molecular target: T1, 20S proteasome (Homo sapiens, UniProt P28074); assay: Inactivation of 20S proteasome, hydrolysis of Suc-Leu-Leu-Val-Tyr-AMC followed by fluorescence; type: biochemical; details: for kinact/KI: read-out: kobs/[3]
T1 construct: purchased Boston Biochem
Method: Determination of the inhibitory activity of Compound 3 against the 20S proteasome (see reference 12) was carried out by a modification of the method reported by Dick et al. See reference 11. […] See reference 12. The progress of proteasome inactivation was determined by addition of Suc-LLVY-AMC to a 2 mL aliquot of the incubation experiment and monitoring the rate of production of free AMC by fluorescence spectrophotometry.
A plot of .ln(fluorescence/time) vs. time provided a linear decay whose slope is kobs for proteasome inactivation (FIG. 2). The rate of proteasome inactivation was proportional to the amount of Compound 3 present in the incubation experiments. The 10 μM and 30 μM time course experiments gave values for kobs/[3] as 7 M-1s-1 and 6.7 M-1s-1 respectively. In order to monitor background inactivation of 20S proteasome (see reference 13), each of these of experiments was run side by side with a control experiment identical in all respects except for the exclusion of Compound 3.
Inactivation of 20S proteasome by Compound 3. To separate 50 mL vials containing 12 mL of pH 7.9 buffer (20 mM hepes, 0.5 mM EDTA) was added 60 μL of a stock solution of 20S proteasome (20 mM Hepes, 0.5 mM EDTA, pH 7.9, 100 μg/mL) and aqueous sodium dodecylsulfate (10% w/v, 30 μL). The initial rate of hydrolysis of Suc-Leu-Leu-Val-TyrAMC was determined by addition of a solution of Suc-Leu-Leu-Val-Tyr-AMC (10 mM in DMSO, 10 μL) to a 2 mL aliquot of each of the above solutions. The initial rate of free AMC production was monitored at 37° C. by fluorescence spectrophotometry as described by Dick et al.* To one of the stock solutions was added a solution of the β-lactam 3 (10 mM in DMSO, 12 μL). Both solutions were incubated side by side at 37° C. Aliquots were removed at time points as assayed as above. The data for both the 10 μM experiment and an identical experiment utilizing 30 μM using a 30 mM stock solution of 3 are tabulated below. * See, McCormack, T.; Baumeister, W.; Grenier, L.; Moomaw, C.; Plamondon, L.; Pramanik, B.; Slaughter, C.; Soucy, F.; Stein, R.; Zuhl, F.; Dick, L., J. Biol. Chem. 1996, 272, 26103-26109.

PC12 cells = details: cited from earlier work
[2] = Part 2, 30 μM of Compound 3, time 0 mm
[3] = Part 2, 30 μM of Compound 3, time 47 mm
[4] = Part 2, 30 μM of Compound 3, time 101 mm
[5] = Part 2, 30 μM of Compound 3, time 177 mm

CC(C)[C@H](O)[C@@]12NC(=O)[C@H](CCCl)[C@@H]1NC2=O [Compound 3]
melting point: 205 to 207 °C
stability compared with the corresponding β-lactone and Compounds 1 and 2 ([1]; found to date): much more stable
stability at pH 7 ([1]; pH 7, 23° C., 24 h): completely stable
remaining activity at 10 µM (20S proteasome; 10 μM 3, after 9.5 h, read-out: initial proteasome activity remaining): < 10%
% Initial Velocity (20S proteasome; 10 μM Compound 3, time 0 h): 100%
Experiment with 10 μM 3 (units F/s) (20S proteasome; 10 μM Compound 3, time 0 h): 0.59 units F/s
% Initial Velocity (20S proteasome; 10 μM Compound 3, time 1.5 h): 57%
Experiment with 10 μM 3 (units F/s) (20S proteasome; 10 μM Compound 3, time 1.5 h): 0.337 units F/s
% Initial Velocity (20S proteasome; 10 μM Compound 3, time 2.5 h): 45%
Experiment with 10 μM 3 (units F/s) (20S proteasome; 10 μM Compound 3, time 2.5 h): 0.267 units F/s
% Initial Velocity (20S proteasome; 10 μM Compound 3, time 4.5 h): 26%
Experiment with 10 μM 3 (units F/s) (20S proteasome; 10 μM Compound 3, time 4.5 h): 0.156 units F/s
% Initial Velocity (20S proteasome; 10 μM Compound 3, time 6.5 h): 15%
Experiment with 10 μM 3 (units F/s) (20S proteasome; 10 μM Compound 3, time 6.5 h): 0.09 units F/s
% Initial Velocity (20S proteasome; 10 μM Compound 3, time 9.5 h): 7.4%
Experiment with 10 μM 3 (units F/s) (20S proteasome; 10 μM Compound 3, time 9.5 h): 0.044 units F/s
remaining activity at 30 µM (20S proteasome; 30 μM 3, after 3 h, read-out: initial proteasome activity remaining): < 10%
% Initial Velocity (20S proteasome; [2]): 100%
Experiment with 10 μM 3 (units F/s) (20S proteasome; [2]): 0.526 units F/s
% Initial Velocity (20S proteasome; [3]): 44%
Experiment with 10 μM 3 (units F/s) (20S proteasome; [3]): .233 units F/s
% Initial Velocity (20S proteasome; [4]): 17%
Experiment with 10 μM 3 (units F/s) (20S proteasome; [4]): 0.090 units F/s
% Initial Velocity (20S proteasome; [5]): 7%
Experiment with 10 μM 3 (units F/s) (20S proteasome; [5]): 0.039 units F/s
kinact/KI (20S proteasome; pH 7.9, 10 μM time course): 7 M⁻¹ s⁻¹
kinact/KI (20S proteasome; pH 7.9, 30 μM time course): 6.7 M⁻¹ s⁻¹

CC(C)C[C@@H](C=O)NC(=O)[C@H](CC(C)C)NC(=O)[C@H](CC(C)C)NC(=O)OCc1ccccc1 [benzyloxycarbonyl (Z)-Leu-Leu-leucinal] (Cbz-Leu-Leu-Leu-aldehyde)
optimal concentration for inducing neurite outgrowth (PC12 cells): 30 nM

From patent US7465720B2, “Proteasome inhibiting β-lactam compounds” (President and Fellows of Harvard College, priority 2005, dated 2008)
